Results taken from patent US20080171783A1, “COMPOSITIONS AND METHODS FOR TREATING HYPERPROLIFERATIVE DISEASE” (Migenix Inc., priority 2006, published 2008).

Legend:
Calf polymerase alpha = target: T1, Calf polymerase alpha (Bos taurus, UniProt A0AAA9TD94); assay: Calf polymerase alpha inhibition (Replizyme kit); assay type: biochemical; conditions: for IC50: dose response
T1 construct: purchased Replizyme Ltd (Heslington, York, UK)
T1 sequence (A0AAA9TD94 1-1441): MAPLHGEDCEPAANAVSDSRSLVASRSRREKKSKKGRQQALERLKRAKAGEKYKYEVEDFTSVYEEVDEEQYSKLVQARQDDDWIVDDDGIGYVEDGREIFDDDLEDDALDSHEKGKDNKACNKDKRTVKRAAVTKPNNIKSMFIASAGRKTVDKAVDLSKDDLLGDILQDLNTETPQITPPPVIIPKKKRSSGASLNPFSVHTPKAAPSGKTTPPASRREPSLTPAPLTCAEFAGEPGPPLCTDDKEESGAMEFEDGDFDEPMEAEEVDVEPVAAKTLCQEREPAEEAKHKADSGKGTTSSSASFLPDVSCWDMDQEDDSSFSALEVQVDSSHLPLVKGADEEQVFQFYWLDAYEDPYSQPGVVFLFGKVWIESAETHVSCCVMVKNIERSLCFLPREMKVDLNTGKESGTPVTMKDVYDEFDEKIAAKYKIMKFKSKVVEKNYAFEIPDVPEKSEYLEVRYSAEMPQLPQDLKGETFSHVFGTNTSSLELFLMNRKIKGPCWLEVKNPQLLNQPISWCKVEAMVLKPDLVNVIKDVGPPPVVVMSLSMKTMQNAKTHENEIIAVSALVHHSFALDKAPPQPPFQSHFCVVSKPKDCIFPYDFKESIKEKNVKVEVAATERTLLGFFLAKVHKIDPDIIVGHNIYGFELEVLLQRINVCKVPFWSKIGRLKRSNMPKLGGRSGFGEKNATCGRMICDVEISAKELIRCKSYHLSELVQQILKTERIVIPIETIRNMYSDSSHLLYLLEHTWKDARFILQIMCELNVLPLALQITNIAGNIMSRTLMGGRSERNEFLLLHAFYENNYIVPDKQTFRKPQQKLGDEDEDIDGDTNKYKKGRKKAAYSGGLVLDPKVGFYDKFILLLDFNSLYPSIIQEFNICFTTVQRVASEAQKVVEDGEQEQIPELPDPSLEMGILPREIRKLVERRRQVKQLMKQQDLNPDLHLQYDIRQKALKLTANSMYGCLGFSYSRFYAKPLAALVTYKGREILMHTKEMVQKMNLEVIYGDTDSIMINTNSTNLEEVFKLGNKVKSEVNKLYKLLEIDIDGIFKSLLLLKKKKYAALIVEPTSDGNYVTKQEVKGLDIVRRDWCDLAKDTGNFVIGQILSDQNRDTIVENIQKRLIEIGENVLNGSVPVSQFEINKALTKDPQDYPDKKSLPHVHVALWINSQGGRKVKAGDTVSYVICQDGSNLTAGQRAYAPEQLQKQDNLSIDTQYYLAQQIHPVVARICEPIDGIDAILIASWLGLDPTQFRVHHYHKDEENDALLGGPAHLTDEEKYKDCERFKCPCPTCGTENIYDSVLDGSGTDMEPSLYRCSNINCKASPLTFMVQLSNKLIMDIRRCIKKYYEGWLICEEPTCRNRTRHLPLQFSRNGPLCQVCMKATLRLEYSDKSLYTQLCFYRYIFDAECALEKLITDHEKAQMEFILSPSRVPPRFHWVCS
Method: (§1) Calf polymerase alpha and human polymerase alpha investigations were performed with a kit available from Replizyme Ltd (Heslington, York, UK).

Caco-2 = assay: Cell viability by XTT
Method: (§2) Compounds were solubilized at […] in DMSO and were stored at −20° C. Test compounds were initially tested at a single concentration of 10 μM and a subset of test compounds were further tested in selected cell lines using a six concentration dose response curve.
(§3) Cell Preparation Cancer cell lines were passaged in T-75 flasks prior to use in the assay in cell culture medium recommended by the ATCC (American Type Culture Collection; Table 6). On the day preceding the assay, the cells were split 1:2 to assure they were in an exponential growth phase at the time of compound treatment. Total cell and viability quantification was performed using a hemocytometer and Trypan Blue dye exclusion. […] The cells were resuspended at the appropriate cell per mL (Table 6) in tissue culture medium and added to the microtitre plates in a volume of 100 μL. Colon cell lines were incubated overnight at 37° C./5% CO2 to allow for cell adherence to the plates.
(§4) Plate Format: Each plate contains cell control wells (cells only), drug calorimetric control wells (drug only) as well as experimental wells (drug plus cells). Samples were tested in triplicate at a concentration of 10 μM and five half-logarithmic dilutions.
(§5) Cell Viability by XTT: Following incubation at 37° C. in a 5% CO2 incubator for four days, the test plates were stained with the tetrazolium dye XTT (2,3-bis(2-methoxy-4-nitro-5-sulfophenyl)-5-[(phenylamino)carbonyl]-2H-tetrazolium hydroxide). XTT-tetrazolium was metabolized by the mitochondrial enzymes of metabolically active cells to a soluble formazan product. XTT solution was prepared daily as a stock of 1 mg/mL in RPMI1640. Phenazine methosulfate (PMS) solution was prepared at 0.15 mg/mL in phosphate buffered saline (PBS) and stored in the dark at −20° C. XTT/PMS stock was prepared immediately before use by adding 40 μL of PMS per mL of XTT solution. Fifty (50) microlitres of XTT/PMS was added to each well of the plate and the plate was reincubated for 4 hours at 37° C. Plates were sealed with adhesive plate sealers and shaken gently or inverted several times to mix the soluble formazan product and the plate was read spectrophotometrically at 450/650 nm with a Molecular Devices Vmax plate reader. […] An Average Response Factor (ARF) was calculated for each compound by averaging the ten Percentage of Control values for the cell lines. […] Deviations below 100% control indicate activity. The concentration of each tested compound is 10 μM.

Jurkat = assay: Cell viability by XTT; conditions: single dose 10 μM, four days
Method: as §2, §3, §4, §5

THP-1 = assay: Cell viability by XTT; conditions: THP-1, single dose 10 μM, four days
Method: as §2, §3, §4, §5

HT29 = assay: cells; conditions: HT29, single dose 10 μM, four days
Method: as §2, §3, §4, §5

HCT-15 = assay: Cell viability by XTT; assay type: cell-based; conditions: HCT-15, single dose 10 μM, four days
Method: as §2, §3, §4, §5

HL-60 = assay: Cell viability by XTT; assay type: cell-based; conditions: HL-60, single dose 10 μM, four days
Method: as §2, §3, §4, §5

[1] = test system: 5 Leukemia and 5 Colon Cancer Cell Lines; assay: Cell viability by XTT, cell line panel; assay type: cell-based; conditions: 10 μM
Method: as §2, §3, §4, §5

human polymerase alpha = target: T2, human polymerase alpha (Homo sapiens, UniProt P09884); assay: Human polymerase alpha inhibition (Replizyme kit); assay type: biochemical; conditions: dose response
T2 construct: purchased Replizyme Ltd (Heslington, York, UK)
T2 sequence (P09884 1-1462): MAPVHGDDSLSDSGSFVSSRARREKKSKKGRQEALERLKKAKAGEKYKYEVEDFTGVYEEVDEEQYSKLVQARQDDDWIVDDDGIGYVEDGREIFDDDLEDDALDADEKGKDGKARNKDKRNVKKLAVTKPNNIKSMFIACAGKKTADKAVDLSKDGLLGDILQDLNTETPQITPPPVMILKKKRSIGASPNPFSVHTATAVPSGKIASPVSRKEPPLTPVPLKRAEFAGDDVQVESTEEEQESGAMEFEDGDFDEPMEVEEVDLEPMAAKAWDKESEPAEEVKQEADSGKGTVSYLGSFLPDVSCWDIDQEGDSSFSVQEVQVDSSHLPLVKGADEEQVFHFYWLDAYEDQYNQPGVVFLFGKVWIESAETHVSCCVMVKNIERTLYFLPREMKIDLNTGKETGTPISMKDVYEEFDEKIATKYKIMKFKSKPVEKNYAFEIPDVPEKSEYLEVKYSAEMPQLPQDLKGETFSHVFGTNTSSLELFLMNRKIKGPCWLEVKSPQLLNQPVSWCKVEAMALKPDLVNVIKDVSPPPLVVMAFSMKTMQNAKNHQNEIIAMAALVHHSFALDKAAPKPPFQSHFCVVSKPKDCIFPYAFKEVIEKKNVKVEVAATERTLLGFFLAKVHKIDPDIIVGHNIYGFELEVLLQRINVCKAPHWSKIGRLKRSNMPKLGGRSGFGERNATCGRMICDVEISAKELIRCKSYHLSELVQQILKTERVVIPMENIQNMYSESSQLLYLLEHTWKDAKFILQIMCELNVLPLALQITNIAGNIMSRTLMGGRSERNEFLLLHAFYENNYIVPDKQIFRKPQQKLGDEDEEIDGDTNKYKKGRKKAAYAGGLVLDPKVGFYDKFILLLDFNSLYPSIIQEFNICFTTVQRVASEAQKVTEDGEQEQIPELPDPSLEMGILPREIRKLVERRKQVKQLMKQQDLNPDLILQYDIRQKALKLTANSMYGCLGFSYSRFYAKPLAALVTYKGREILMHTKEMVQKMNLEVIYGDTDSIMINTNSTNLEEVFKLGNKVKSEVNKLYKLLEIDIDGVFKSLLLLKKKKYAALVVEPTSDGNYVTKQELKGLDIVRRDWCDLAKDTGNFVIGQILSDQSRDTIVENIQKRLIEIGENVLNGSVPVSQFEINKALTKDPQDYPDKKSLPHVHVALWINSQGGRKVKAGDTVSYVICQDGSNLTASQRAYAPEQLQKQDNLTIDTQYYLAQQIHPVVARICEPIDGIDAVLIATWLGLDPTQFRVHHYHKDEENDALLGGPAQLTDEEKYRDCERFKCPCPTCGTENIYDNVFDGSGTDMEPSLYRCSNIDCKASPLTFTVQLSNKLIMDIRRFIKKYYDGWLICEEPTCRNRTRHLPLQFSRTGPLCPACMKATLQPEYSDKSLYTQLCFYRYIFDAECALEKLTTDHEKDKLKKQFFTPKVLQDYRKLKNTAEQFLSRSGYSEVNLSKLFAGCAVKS
Method: as §1

[2] = Cytotoxicity Huh-7 cells (MTS/PMS); assay type: cell-based; conditions: human, 3-day incubation
Method: Cytotoxicity of compounds for use in treating hyperproliferative diseases or disorders was tested in Huh-7 cells using tetrazolium salt MTS combined with the electron acceptor PMS in a 96-well format. Six doses of each compound was tested, starting at about 1.2 μM to 0.4 μM serially diluted in a final 1% DMSO solution in DMEM/F12 media. Terfenadine was used as a positive control. Cells were seeded at 2.5×10^5 cells/mL in each well of the 96-well plates in a final volume of 0.1 mL, and then incubated at 37° C. in the presence of 5% CO2 overnight. Compounds (in media) were added the following day and the treated cells were incubated another 3-days at 37° C. in the presence of 5% CO2. After the 3-day incubation, 20 μL of MTS/PMS (3-(4,5-dimethylthiazol-2-yl)-5-(3-carboxymethoxy-phenyl)-2-(4-sulfophenyl)-2H-tetrazolium) was added to each well. After about a one to four hour incubation of MTS/PMS at 37° C. and 5% CO2—that is, until an OD490 absorbance of ≧0.6 for the wells containing cells with media only, the level of cytotoxicity at each concentration was calculated. […] Dose response results from the cytotoxicity assay (CC50) are provided in Table 4 in comparison with IC50 data (from Table 2)

[3] = at 10 μM, single point screening

Compound | % Inhibition (Calf polymerase alpha; [3]) | Percentage of Cell Control (Caco-2; Caco-2, single dose 10 μM, four days) | CC50 (Caco-2; read-out: Activity (TC50), Caco-2, six concentration dose response, Table 9) | Percentage of Cell Control (Jurkat) | Percentage of Cell Control (THP-1) | Percentage of Cell Control (HT29) | Percentage of Cell Control (HCT-15) | Percentage of Cell Control (HL-60) | ARF (Average Response Factor, Average Percentage of Control) ([1]; average of the ten Percentage of Control values) | Range (Percentage of Control over the same 10 cell lines) ([1]; lowest to highest of the ten cell lines) | inhibition at 10 µM (Calf polymerase alpha; [3]) | IC50 (Calf polymerase alpha) | IC50 (human polymerase alpha) | CC50 at 3 days [2]
Cc1ccc(NC(=O)[C@H](CCCCN)NC(=O)Cc2ccc(-c3ccccc3)cc2)cc1 [Compound 50, (S)-6-AMINO-2-(2-BIPHENYL-4-YL-ACETYLAMINO)-HEXANOIC ACID P-TOLYLAMIDE] | 71% | 8.3% | 9.4 µM | 4.6% | 89.7% | 27.7% | 114.3% | 91.7% | 77.7% | 4.6 to 122% | – | – | – | –
Cc1ccc(NC(=O)[C@H](CCCCN)NC(=O)Nc2ccc3c(c2)Cc2ccccc2-3)cc1 [Compound 125, (S)-6-AMINO-2-[3-(9H-FLUOREN-2-YL)-UREIDO]-HEXANOIC ACID P-TOLYLAMIDE] | – | – | – | – | – | – | – | – | – | – | 100% | 2.8 µM | 3 µM | 9.7 µM
Cc1ccc(NC(=O)[C@H](CCCCN)NC(=O)Nc2ccc(OCc3ccccn3)cc2)cc1 [Compound 299, (S)-6-AMINO-2-{3-[4-(PYRIDIN-2-YLMETHOXY)-PHENYL]-UREIDO}-HEXANOIC ACID P-TOLYLAMIDE] | – | – | – | – | – | – | – | – | – | – | 16% | > 30 µM | 68 µM | > 100 µM
Cc1ccc(NC(=O)C[C@H](CCCCN)NC(=O)Nc2ccc(OCc3ccccc3)cc2)cc1 [Compound 246, (S)-7-AMINO-3-[3-(4-BENZYLOXY-PHENYL)-UREIDO]-HEPTANOIC ACID P-TOLYLAMIDE] | – | – | – | – | – | – | – | – | – | – | 46.6% | 9.8 µM | 8 µM | 45.9 µM
NCCCC[C@H](NC(=O)Nc1ccc(OCc2ccccc2)cc1)C(=O)NCc1ccco1 [Compound 302, (S)-6-AMINO-2-[3-(4-BENZYLOXY-PHENYL)-UREIDO]-HEXANOIC ACID (FURAN-2-YLMETHYL)-AMIDE] | – | – | – | – | – | – | – | – | – | – | 5% | > 30 µM | 72 µM | > 100 µM
NCCCC[C@H](NC(=O)Nc1ccc(-c2ccccc2)cc1)C(=O)Nc1ccc(C2CCCCC2)cc1 [Compound 119, (S)-6-AMINO-2-(3-BIPHENYL-4-YL-UREIDO)-HEXANOIC ACID (4-CYCLOHEXYL-PHENYL)-AMIDE] | – | – | – | – | – | – | – | – | – | – | 102% | 1.5 µM | 1.5 µM | 12.2 µM
